# Where a chain is given by its changes, count along the chain named. Names and notes keep the numbering of the source.
# T1: KLBP (Mus musculus, UniProt Q05816)
# T1 sequence (Q05816 1-135): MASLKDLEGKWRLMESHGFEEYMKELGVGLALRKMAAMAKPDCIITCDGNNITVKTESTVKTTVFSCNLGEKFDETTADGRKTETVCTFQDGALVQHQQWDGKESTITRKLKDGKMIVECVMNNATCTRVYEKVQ
# T2: ALBP (Mus musculus, UniProt P04117)
# T2 sequence (P04117 1-132): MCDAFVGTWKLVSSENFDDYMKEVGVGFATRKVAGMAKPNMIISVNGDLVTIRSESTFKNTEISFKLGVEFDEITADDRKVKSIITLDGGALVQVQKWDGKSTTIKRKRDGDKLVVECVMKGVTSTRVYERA
# T3: CRBP (Homo sapiens, UniProt P09455)
# T3 sequence (P09455 1-135): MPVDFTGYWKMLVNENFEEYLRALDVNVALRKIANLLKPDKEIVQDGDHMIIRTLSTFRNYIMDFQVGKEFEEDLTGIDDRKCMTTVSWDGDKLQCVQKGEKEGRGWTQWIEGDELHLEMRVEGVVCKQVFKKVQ
# T4: serum vitamin D binding protein (Homo sapiens, UniProt P02774)
# T4 sequence (P02774 17-474): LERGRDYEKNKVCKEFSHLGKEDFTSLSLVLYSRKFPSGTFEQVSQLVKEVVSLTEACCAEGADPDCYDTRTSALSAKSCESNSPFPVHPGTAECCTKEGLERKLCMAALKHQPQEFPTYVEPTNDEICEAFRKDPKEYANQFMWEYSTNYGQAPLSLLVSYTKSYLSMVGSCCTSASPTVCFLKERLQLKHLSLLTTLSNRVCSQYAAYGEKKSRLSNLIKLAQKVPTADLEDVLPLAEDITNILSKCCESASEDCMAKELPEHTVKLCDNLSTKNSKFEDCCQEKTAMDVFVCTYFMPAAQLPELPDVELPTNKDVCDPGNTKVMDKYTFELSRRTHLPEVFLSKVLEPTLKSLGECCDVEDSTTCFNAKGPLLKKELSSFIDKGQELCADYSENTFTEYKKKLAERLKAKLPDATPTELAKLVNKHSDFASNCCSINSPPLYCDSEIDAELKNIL
# T5: cellular retinol-binding protein (CRBP) (Homo sapiens, UniProt P09455)
# T5 sequence (P09455 1-135): T3 sequence (P09455 1-135)
# T6: keratinocyte lipid-binding protein (KLBP) (Mus musculus, UniProt Q05816)
# T6 sequence (Q05816 1-135): T1 sequence (Q05816 1-135)
# B1: wild type: Human placental SAH hydrolase, wild type, expressed in E. coli JM109 (protein, UniProt P23526 2-432, looked up)
# Adenosylhomocysteinase: SDKLPYKVADIGLAAWGRKALDIAENEMPGLMRMRERYSASKPLKGARIAGCLHMTVETAVLIETLVTLGAEVQWSSCNIFSTQDHAAAAIAKAGIPVYAWKGETDEEYLWCIEQTLYFKDGPLNMILDDGGDLTNLIHTKYPQLLPGIRGISEETTTGVHNLYKMMANGILKVPAINVNDSVTKSKFDNLYGCRESLIDGIKRATDVMIAGKVAVVAGYGDVGKGCAQALRGFGARVIITEIDPINALQAAMEGYEVTTMDEACQEGNIFVTTTGCIDIILGRHFEQMKDDAIVCNIGHFDVEIDVKWLNENAVEKVNIKPQVDRYRLKNGRRIILLAEGRLVNLGCAMGHPSFVMSNSFTNQVMAQIELWTHPDKYPVGVHFLPKKLDEAVAEAHLGKLNVKLTKLTEKQAQYLGMSCDGPFKPDHYRY
# B2: F302S: Mutant human SAH hydrolase, Phe 302 to Ser (protein, UniProt P23526 2-432, looked up, variant F302S)
# Adenosylhomocysteinase: B1 Adenosylhomocysteinase with F301S
# Experiments:
# [1] = molecular target: T1, KLBP; settings: displacement of 1,8-ANS from KLBP; cited from earlier work
# [2] = molecular target: T2, ALBP; settings: displacement of 1,8-ANS from ALBP, cited from earlier work; for Ki: read-out: apparent inhibitor constant (Ki)
# [3] = molecular target: T3, CRBP; settings: displacement of 1,8-ANS from CRBP; cited from earlier work
# [4] = molecular target: T4, serum vitamin D binding protein; settings: binding to serum vitamin D binding protein, Langmuir isotherm, nonlinear least-squares fit; cited from earlier work
# [5] = molecular target: T5, cellular retinol-binding protein (CRBP); settings: read-out: apparent dissociation constant; probe binding to CRBP; cited from earlier work
# [6] = molecular target: T6, keratinocyte lipid-binding protein (KLBP); settings: read-out: apparent dissociation constant (Kd); probe binding to KLBP; cited from earlier work
# [7] = molecular target: cellular retinoic acid-binding protein I (CRABPI) (Homo sapiens, UniProt P29762); settings: read-out: apparent dissociation constant; probe binding to CRABPI; cited from earlier work
# cellular retinoic acid-binding protein I (CRABPI), sequence (P29762 whole entry, species assumed): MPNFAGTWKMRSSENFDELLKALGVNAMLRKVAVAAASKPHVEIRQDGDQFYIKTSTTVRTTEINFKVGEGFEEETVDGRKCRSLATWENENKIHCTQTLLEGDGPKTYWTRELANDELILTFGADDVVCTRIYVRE
# [8] = molecular target: T7, SAH hydrolase (Homo sapiens, UniProt P23526); assay: SAH hydrolase activity, hydrolytic direction (kinetic constants for SAH); format: biochemical; settings: substrate SAH
# T7 construct: made in house; host or cells: E. coli JM109, vector pKK223-3
# T7 sequence (P23526 whole entry): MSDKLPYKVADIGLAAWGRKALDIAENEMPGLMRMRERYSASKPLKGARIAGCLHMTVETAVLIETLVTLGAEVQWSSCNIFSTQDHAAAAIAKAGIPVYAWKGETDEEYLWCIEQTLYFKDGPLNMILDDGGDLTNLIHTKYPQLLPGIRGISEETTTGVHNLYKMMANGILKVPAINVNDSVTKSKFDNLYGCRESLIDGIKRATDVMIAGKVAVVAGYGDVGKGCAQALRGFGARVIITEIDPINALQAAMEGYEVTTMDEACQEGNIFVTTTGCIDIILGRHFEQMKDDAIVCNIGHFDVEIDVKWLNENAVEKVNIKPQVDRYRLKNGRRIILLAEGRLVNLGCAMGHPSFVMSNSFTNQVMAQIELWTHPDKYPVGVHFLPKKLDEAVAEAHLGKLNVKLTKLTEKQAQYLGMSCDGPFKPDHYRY
# Description: The assay of SAH hydrolase activity in the hydrolytic direction was performed as described in Yuan et al., J. Biol. Chem., 271:28008-28016, 1996). The assay measures the hydrolysis of SAH into Ado and Hcy. The reaction product Hcy was derivatized by thiol specific reagent DTNB for colometric determination at 412 nm. The assay for SAH hydrolase in the synthetic direction was measured by the formation of SAH from substrate Ado and Hcy using HPLC (see, Yuan et al., J. Biol. Chem., 268:17030-17037 (1993). One unit of the enzyme activity was defined as the amount of enzyme that can hydrolyze or synthesize 1 μmole of SAH/min/mg.
# Mutant SAH hydrolase (e.g., F302S) was specifically fluorescence labels on Cys421, an non-essential cysteine residue which is located on the surface of the protein that is not involved in substrate binding and catalysis. Cys421 residue is readily accessible by thiol reactive molecules, and can be modified without effect the binding affinity of the enzyme. Thiol specific reactive probes such as 7-diethylamino-3(4′-maleimidylphenyl)-4-methylcoumarin (CPM) can specifically label protein thiols. Mutant SAH hydrolase (F302S) (0.5 mg/ml) in 50 mM phosphate buffer, pH 7.2, was incubated with 2 mM of adenine to protect other thiols in the substrate binding site, followed by addition of CPM to final concentration of 50 μM. The reaction mixture was incubated at room temperature for 30 min. followed by gel filtration on a size exclusion column (Sephacryl S-300, […]×60 cm) to remove adenine and excess CPM. The CPM-labeled F302S mutant SAH hydrolase (2 mg/ml) was kept in 50 mM phosphate buffer containing 20% glycerol at −20° C. The comparison of Km (SAH) and Kcat (SAH) for wild type and mutant F302S is shown below in Table 10.
molecule,measurement,setting,value
CC1=C(/C=C/C(C)=C/C=C/C(C)=C/CO)C(C)(C)CCC1 [all-trans-retinol],bound by KLBP,[1],neither octanoic acid nor all-trans-retinol were bound
same,displacement of the fluorophore from ALBP,[2],did not displace
CC1=C(/C=C/C(C)=C/C=C/C(C)=C/C(=O)O)C(C)(C)CCC1 [all-trans-retinoic acid],Ki,[1],3600 nM
same,Ki,[2],870 nM
same,Ki,[3],5300 nM
25-hydroxyvitamin D,Kd,[4],5590 nM
vitamin D,Kd,[4],91700 nM
CC1=C(/C=C/C(C)=C/C=C/C(C)=C/C=O)C(C)(C)CCC1 [all-trans-retinal],Ki,[3],1700 nM
CCCCCCCC(=O)O [octanoic acid],bound by KLBP,[1],neither octanoic acid nor all-trans-retinol were bound
same,displacement of the fluorophore from ALBP,[2],did not displace
CCCCC/C=C\C/C=C\C/C=C\C/C=C\CCCC(=O)O [arachidonic acid],Ki,[1],400 nM
CCCCCCCC/C=C\CCCCCCCC(=O)O [Oleic acid],Ki,[1],420 nM
same,Ki,[2],134 nM
"O=S(=O)(O)c1cccc2cccc(Nc3ccccc3)c12 [1,8-ANS, 1-anilinonapthalene 8-sulfonic acid]",Kd,[5],7700 nM
same,Kd,[6],530 nM
same,Kd,[7],25000 nM
B1,Kcat (SAH),[8],3.8 S^−1
same,Km,[8],7.9 µM
B2,Kcat (SAH),[8],0.1 S^−1
same,Km,[8],1 µM

# From patent US6610504B1, “Methods of determining SAM-dependent methyltransferase activity using a mutant SAH hydrolase” (General Atomics, priority 2000, dated 2003)
